In data set [1] the test system is LNCaP. Kind of data set: Antitumor activity in human LNCaP cells xenografted in mouse model assessed as tumor growth regression at 200 mg/kg,po relative to control. In kind it is functional.
Data set [2] relates to RS4-11. Kind of data set: Antitumor activity in human RS4-11 cells xenografted in mouse model assessed as tumor growth regression at 200 mg/kg,po relative to control. Format: functional.
Data set [3] can be described thus: Half life in F344/N Jcl-rnu rat at 40 to 80 mg/kg/day, po or iv measured after 28 days. In kind it is ADME, organism-based. To be noted: in vivo, dose 40-80 mg/kg/day, time 28 day.
The nature of data set [4]: Half life in male Crl:CD Sprague-Dawley rat at 40 to 80 mg/kg/day, po or iv measured after 28 days. To be noted: in vivo, dose 40-80 mg/kg/day, time 28 day. Format: ADME, organism-based.
A short description of data set [5]: Oral bioavailability in F344/N Jcl-rnu rat at 40 to 80 mg/kg/day measured after 28 days. Conditions: in vivo, dose 40-80 mg/kg/day, time 28 day. In kind it is ADME, organism-based.
Data set [6] can be described thus: Oral bioavailability in male Crl:CD Sprague-Dawley rat at 40 to 80 mg/kg/day measured after 28 days. In kind it is ADME, organism-based. Conditions: in vivo, dose 40-80 mg/kg/day, time 28 day.

Turning to `CC(C)(C)C[C@@H]1N[C@@H](C(=O)N[C@H]2CC[C@H](O)CC2)[C@H](c2cccc(Cl)c2F)[C@]12C(=O)Nc1cc(Cl)ccc12` [SAR-405838], the Activity in data set [1] amounted to 80%; in data set [2] it was 100%.
Turning to `COc1ccc(/C=C/c2nc(NCCCN(C)C)c3ccccc3n2)cc1`, the half-life in data set [3] and in data set [4] was 14 h each time. Moreover, the bioavailability in data set [5] and in data set [6] was 12% throughout.
